# System: Streptococcus mutans DSM6178 (ATCC 35668)
# Assay: Photodynamic inactivation of bacterial cell suspensions of Streptococcus mutans by Erythrosin B gel
# Format: cell-based
# Details: in saliva; general statement
# Method: Photodynamic Inactivation of Bacterial Cell Suspensions of Streptococcus mutans by Erythrosin B: The organism used in this study was Streptococcus mutans DSM6178 (ATCC 35668). Gram-positive Streptococcus spec. are jointly responsible for the development of oral caries. Streptococcus mutans cells were grown aerobically overnight at 37° C. in Tryptic Soy Broth (Merck KGaA Darmstadt, Germany). Cells were harvested by centrifugation and resuspended in sterile phosphate-buffered saline (PBS) supplemented with 10% sterile filtered natural saliva. The final OD (Optical Density) at 600 nm, for a 1 cm path length, in all cases was 0.05. About 0.5 ml of an Erythrosin B gel of hydroxyethyl cellulose (1 mM, 2 mM, 3 mM and 8 mM Erythrosin B) were placed at the bottom of a tube. The gel was layered with 0.5 ml of the bacterial suspension and exposed for 1, 3 or 5 minutes, respectively under slight shaking at room temperature. After exposure 250 μl of the suspension was placed in a new tube, the tube was centrifuged, the supernatant was removed and the cell pellet was resuspended in 250 μl of PBS+10% natural saliva (sterile filtered). […] The fluence rate for these settings was about 0.1 W/cm^2 (measured with Optometer P-9710, Gigahertz-Optik GmbH, Puchheim, Germany). […]
smiles,measurement,value
O.O=C([O-])c1ccccc1-c1c2cc(I)c(=O)c(I)c-2oc2c(I)c([O-])c(I)cc12.[Na+].[Na+] [Erythrosin B],photosensitizing effectiveness against Gram-positive bacteria,effective photosensitizing substance against Gram-positive bacteria in saliva

# From US20050059731A1, “Erythrosin-based antimicrobial photodynamic therapy compound and its use” (CeramOptec Industries, Inc., priority 2003, published 2005)
